In ChEMBL document CHEMBL3588841, “Synthesis and cancer cell growth inhibitory activity of icaritin derivatives” (Eur J Med Chem, 2015):
pIC50: −log10 of the molar value.

Legend:
[1] = Cytotoxicity against human MDA-MB-435S cells assessed as cell viability by MTT assay; assay type: functional, cell-based
MCF7 [2] = assay: Cytotoxicity against human MCF7 cells assessed as cell viability by MTT assay; assay type: functional, cell-based
A549 [3] = assay: Cytotoxicity against human A549 cells assessed as cell viability by MTT assay; assay type: functional, cell-based
Vero = assay: Cytotoxicity against African green monkey Vero cells assessed as cell viability by MTT assay; assay type: cell-based; conditions: Chlorocebus sabaeus
[4] = Chemical stability of the compound in phosphate buffered saline assessed as decomposition at pH 7; assay type: physicochemical; conditions: read-out: Drug degradation
MCF7 [5] = assay: Ratio of icaritin to compound for human MCF7 cells assessed as cell viability by MTT assay; assay type: functional
[6] = Ratio of icaritin to compound for human MDA-MB-435S cells assessed as cell viability by MTT assay; assay type: functional
A549 [7] = assay: Ratio of icaritin to compound for human A549 cells assessed as cell viability by MTT assay; assay type: functional
MCF7 [8] = assay: Ratio of tamoxifen to compound for human MCF7 cells assessed as cell viability by MTT assay; assay type: functional
[9] = Ratio of tamoxifen to compound for human MDA-MB-435S cells assessed as cell viability by MTT assay; assay type: functional
A549 [10] = assay: Ratio of tamoxifen to compound for human A549 cells assessed as cell viability by MTT assay; assay type: functional

SMILES	pIC50 (MCF7 [2])	pIC50 ([1]; Homo sapiens, MDA-MB-435S)	pIC50 (A549 [3])	pIC50 (Vero)	other results
COc1ccc(-c2oc3c(CC=C(C)C)c(OC(C)C(=O)O)cc(O)c3c(=O)c2OC(C)C(=O)O)cc1 (stereo in doubt; 3b)	–	–	–	–	pIC50 ([1]; mda-mb-435s): 4.57
CCOC(=O)C(Oc1cc(O)c2c(=O)c(OC(C(=O)OCC)C(=O)OCC)c(-c3ccc(OC)cc3)oc2c1CC=C(C)C)C(=O)OCC	< 4.00	4.07	< 4.00	–	–
COc1ccc(-c2oc3c(CC=C(C)C)c(OCCOC(=O)CCC(=O)O)cc(O)c3c(=O)c2OCCOC(=O)CCC(=O)O)cc1	< 4.00	4.22	< 4.00	–	–
COc1ccc(-c2oc3c(CC=C(C)C)c(O)cc(O)c3c(=O)c2OC(C)C(=O)O)cc1 (racemic)	< 4.00	5.12	4.39	4.44	–
CCOC(=O)/C=C/COc1cc(O)c2c(=O)c(OC/C=C/C(=O)OCC)c(-c3ccc(OC)cc3)oc2c1CC=C(C)C	< 4.00	< 4.00	< 4.00	–	–
COc1ccc(-c2oc3c(CC=C(C)C)c(OCCCOC(=O)CCC(=O)O)cc(O)c3c(=O)c2OCCCOC(=O)CCC(=O)O)cc1	< 4.00	5.19	4.74	4.84	–
COc1ccc(-c2oc3c(CC=C(C)C)c(OCC(=O)O)cc(O)c3c(=O)c2OCC(=O)O)cc1	< 4.00	< 4.00	< 4.00	–	–
CC/C(=C(\c1ccccc1)c1ccc(OCCN(C)C)cc1)c1ccccc1 [TAMOXIFEN]	5.42	5.26	5.08	5.24	–
COc1ccc(-c2oc3c(CC=C(C)C)c(O)cc(O)c3c(=O)c2OCC(=O)O)cc1	4.08	4.75	4.36	–	–
COc1ccc(-c2oc3c(CC=C(C)C)c(OCCCO)cc(O)c3c(=O)c2OCCCO)cc1	< 4.00	4.66	< 4.00	–	–
CCOC(=O)COc1cc(O)c2c(=O)c(OCC(=O)OCC)c(-c3ccc(OC)cc3)oc2c1CC=C(C)C	< 4.00	< 4.00	< 4.00	–	–
COc1ccc(-c2oc3c(CC=C(C)C)c(OCCCC(=O)O)cc(O)c3c(=O)c2O)cc1	< 4.00	4.90	4.72	–	–
COc1ccc(-c2oc3c(CC=C(C)C)c(O)cc(O)c3c(=O)c2OC(C(=O)O)C(=O)O)cc1	< 4.00	< 4.00	< 4.00	–	–
COc1ccc(-c2oc3c(CC=C(C)C)c(OC(C)C(=O)O)cc(O)c3c(=O)c2O)cc1 (racemic)	< 4.00	5.24	4.82	4.71	–
COc1ccc(-c2oc3c(CC=C(C)C)c(OCCCC(=O)O)cc(O)c3c(=O)c2OCCCC(=O)O)cc1	< 4.00	4.51	4.59	–	–
COc1ccc(-c2oc3c(CC=C(C)C)c(OCCOC(=O)CCCC(=O)O)cc(O)c3c(=O)c2OCCOC(=O)CCCC(=O)O)cc1	5.52	5.20	5.21	< 4.00	degraded [4]: 7%
COc1ccc(-c2oc3c(CC=C(C)C)c(OCC(=O)O)cc(O)c3c(=O)c2O)cc1	< 4.00	4.87	4.78	–	–
CCOC(=O)CCCOc1c(-c2ccc(OC)cc2)oc2c(CC=C(C)C)c(O)cc(O)c2c1=O	5.52	5.06	4.96	5.24	–
COc1ccc(-c2oc3c(CC=C(C)C)c(O)cc(O)c3c(=O)c2OC/C=C/C(=O)O)cc1	4.31	5.08	4.97	5.15	–

SMILES	pIC50 (MCF7 [2])	pIC50 ([1]; Homo sapiens, MDA-MB-435S)	pIC50 (A549 [3])	pIC50 (Vero)	other results
CCOC(=O)/C=C/COc1cc(O)c2c(=O)c(O)c(-c3ccc(OC)cc3)oc2c1CC=C(C)C	< 4.00	< 4.00	< 4.00	–	–
CCOC(=O)/C=C/COc1c(-c2ccc(OC)cc2)oc2c(CC=C(C)C)c(O)cc(O)c2c1=O	4.99	5.66	5.33	5.51	Ratio (MCF7 [5]): 2.5; Ratio [6]: 2.5; Ratio (A549 [7]): 2.5; Ratio (MCF7 [8]): 2.5; Ratio [9]: 2.5; Ratio (A549 [10]): 2.5
COc1ccc(-c2oc3c(CC=C(C)C)c(OC(C)C(=O)O)cc(O)c3c(=O)c2OC(C)C(=O)O)cc1 (stereo in doubt; 3c)	< 4.00	–	< 4.00	–	pIC50 ([1]; mda-mb-435s): < 4.00
CCOC(=O)CCCOc1cc(O)c2c(=O)c(OCCCC(=O)OCC)c(-c3ccc(OC)cc3)oc2c1CC=C(C)C	< 4.00	< 4.00	< 4.00	–	–
COc1ccc(-c2oc3c(CC=C(C)C)c(O)cc(O)c3c(=O)c2O)cc1 [ICARITIN]	5.15	4.60	< 4.00	4.67	–
CCOC(=O)C(Oc1c(-c2ccc(OC)cc2)oc2c(CC=C(C)C)c(O)cc(O)c2c1=O)C(=O)OCC	4.76	5.36	4.71	5.36	–
CCOC(=O)C(C)Oc1cc(O)c2c(=O)c(O)c(-c3ccc(OC)cc3)oc2c1CC=C(C)C (racemic)	< 4.00	5.60	4.58	5.85	degraded [4]: 25%
CCOC(=O)C(C)Oc1cc(O)c2c(=O)c(OC(C)C(=O)OCC)c(-c3ccc(OC)cc3)oc2c1CC=C(C)C (single isomer, unassigned; diastereomer 2)	< 4.00	< 4.00	< 4.00	–	–
COc1ccc(-c2oc3c(CC=C(C)C)c(OCCCOC(=O)CCCC(=O)O)cc(O)c3c(=O)c2OCCCOC(=O)CCCC(=O)O)cc1	5.66	5.09	4.84	5.20	degraded [4]: 7%
CCOC(=O)C(C)Oc1c(-c2ccc(OC)cc2)oc2c(CC=C(C)C)c(O)cc(O)c2c1=O (racemic)	5.33	5.39	5.34	5.19	degraded [4]: 7%
COc1ccc(-c2oc3c(CC=C(C)C)c(OC(C(=O)O)C(=O)O)cc(O)c3c(=O)c2OC(C(=O)O)C(=O)O)cc1	< 4.00	4.10	< 4.00	–	–
COc1ccc(-c2oc3c(CC=C(C)C)c(OC/C=C/C(=O)O)cc(O)c3c(=O)c2O)cc1	< 4.00	4.95	4.64	–	–
CCOC(=O)COc1cc(O)c2c(=O)c(O)c(-c3ccc(OC)cc3)oc2c1CC=C(C)C	4.55	5.28	4.38	5.85	–
CCOC(=O)CCCOc1cc(O)c2c(=O)c(O)c(-c3ccc(OC)cc3)oc2c1CC=C(C)C	< 4.00	< 4.00	< 4.00	–	–
COc1ccc(-c2oc3c(CC=C(C)C)c(OCCO)cc(O)c3c(=O)c2OCCO)cc1	< 4.00	< 4.00	< 4.00	–	–
CCOC(=O)COc1c(-c2ccc(OC)cc2)oc2c(CC=C(C)C)c(O)cc(O)c2c1=O	< 4.00	4.52	4.19	–	–
COc1ccc(-c2oc3c(CC=C(C)C)c(O)cc(O)c3c(=O)c2OCCCC(=O)O)cc1	< 4.00	5.00	4.62	4.25	–
COc1ccc(-c2oc3c(CC=C(C)C)c(OC/C=C/C(=O)O)cc(O)c3c(=O)c2OC/C=C/C(=O)O)cc1	< 4.00	4.24	< 4.00	–	–
